Assay results reported in PMC6915745, “TRIB3 supports breast cancer stemness by suppressing FOXO1 degradation and enhancing SOX2 transcription” (Nature Communications, 2019).
Read-outs that look alike come from different tables or passages of the source. Peptide text beside a SMILES is read from it. * marks the point of attachment. Cbz = O=C(OCc1ccccc1)*

Columns and labels:
FOXO1 [1] = assay: FOXO1 protein stability (cycloheximide chase), MCF7 cells; format: cell-based, human; conditions: for FOXO1 half-life: CHX, authors' reply to reviewers, control about 3 hr
Description: Fig. 5 TRIB3 stabilizes the FOXO1 protein by suppressing its ubiquitination. a, b HMLE cells transfected with a TRIB3-expressing vector vs. a control vector (a) or MCF7 cells transfected with TRIB3-shRNA vs. CTRL-shRNA (b) were incubated with 20 μM cycloheximide (CHX) for the indicated times. c, d The effect of TRIB3 depletion on FOXO1 degradation in vitro. MCF7 cells (c) were incubated with CHX (20 μM), CHX plus bafilomycin (BAF, 200 nM), or MG132 (10 μM) for the indicated times. Control or TRIB3-silenced MCF7 cells (d, top) and MDA-MB-231 cells (d, bottom) were incubated with DMSO, 200 nM BAF, or 10 μM MG132 for 8 h. The indicated proteins were detected by immunoblotting. e, f FOXO1 activity in HMLE cells (e) transfected with a control vector or a TRIB3-expressing vector, or in MCF7 cells (f) transfected with CTRL-shRNA or TRIB3-shRNA and either a control vector or a FOXO1-expressing vector. g, h The effect of TRIB3 on FOXO1 ubiquitination. HMLE (g) or MCF7 cells (h) were transfected with the indicated plasmid. His-ubiquitin-conjugated proteins were pulled down from cell lysates. Total protein lysates and Ni-NTA-agarose eluates were immunoblotted for FLAG, His, and TRIB3. Source data are provided as a Source Data file. […] I left them out because their labels are genetic constructs, not substances; their digits are also small
(§1) Cycloheximide (CHX; Sigma Aldrich, R750107) was used as a protein synthesis inhibitor to assess the stability of the existing proteins. To assess protein stability, cells were treated with 20 μM CHX and the proteasome inhibitor MG132 (Sigma Aldrich, R750107) at 10 μM or the autophagy inhibitor BAF (Sigma Aldrich, B1793) at 200 nM for the indicated times. Protein expression was assessed via immunoblot analysis with cell lysates (20–60 μg) prepared in RIPA lysis buffer containing protease inhibitors (Roche) using anti-SOX2 (3529), anti-NANOG (4903), anti-OCT4 (2750), anti-KLF4 (4038), anti-c-Myc (13987), anti-FOXO1 (2880), anti-p-FOXO1 (9461), anti-AKT (4685), anti-p-AKT (4060), anti-β-ACTIN (4970), anti-Ubiquitin (3936), or anti-LaminA/C (4777) antibodies from CST; anti-TRIB3 antibody (ab75846) from Abcam; and anti-Trib3 antibody (PA5-15480) from Thermo Fisher Scientific[59]. All antibodies were used at 1:1000 dilution, with the exception of anti-β-Actin antibodies, which were used at 1:2000 dilution. The protein concentrations were determined by BCA Protein Assay Kits (Pierce). Proteins were separated by SDS-polyacrylamide gel electrophoresis (PAGE) and transferred to polyvinylidene difluoride membrane.

FOXO1 [2] = assay: FOXO1 immunoblot in control or TRIB3-silenced MCF7 cells with BAF or MG132; format: cell-based, human; conditions: BAF 200 nM or MG132 10 μM, 8 h, in words
Description: (§2) Fig. 5 TRIB3 stabilizes the FOXO1 protein by suppressing its ubiquitination. a, b HMLE cells transfected with a TRIB3-expressing vector vs. a control vector (a) or MCF7 cells transfected with TRIB3-shRNA vs. CTRL-shRNA (b) were incubated with 20 μM cycloheximide (CHX) for the indicated times. c, d The effect of TRIB3 depletion on FOXO1 degradation in vitro. MCF7 cells (c) were incubated with CHX (20 μM), CHX plus bafilomycin (BAF, 200 nM), or MG132 (10 μM) for the indicated times. Control or TRIB3-silenced MCF7 cells (d, top) and MDA-MB-231 cells (d, bottom) were incubated with DMSO, 200 nM BAF, or 10 μM MG132 for 8 h. The indicated proteins were detected by immunoblotting. e, f FOXO1 activity in HMLE cells (e) transfected with a control vector or a TRIB3-expressing vector, or in MCF7 cells (f) transfected with CTRL-shRNA or TRIB3-shRNA and either a control vector or a FOXO1-expressing vector. g, h The effect of TRIB3 on FOXO1 ubiquitination. HMLE (g) or MCF7 cells (h) were transfected with the indicated plasmid. His-ubiquitin-conjugated proteins were pulled down from cell lysates. Total protein lysates and Ni-NTA-agarose eluates were immunoblotted for FLAG, His, and TRIB3. […]
(§3) Cycloheximide (CHX; Sigma Aldrich, R750107) was used as a protein synthesis inhibitor to assess the stability of the existing proteins. […] The protein concentrations were determined by BCA Protein Assay Kits (Pierce). […]

FOXO1 [3] = assay: FOXO1 immunoblot in control or TRIB3-silenced MDA-MB-231 cells with BAF or MG132; format: cell-based; conditions: BAF 200 nM or MG132 10 μM, 8 h, in words
Description: as §2, §3

TRIB3 = TRIB3 expression after cytokines or stressors, MCF7 cells (WB); format: cell-based, human; conditions: cytokines 8 hr, high glucose 24 hr
Description: as §1, with “membrane. […]” for “membrane.”
(f, g) The expression of
TRIB3 in MCF7 cells (top) or MDA-MB-231 cells (bottom) treated with various concentrations of IL6 for
8 hr (f) or 10 ng/ml IL-6 for different amounts of time (g) was detected by WB. (h) Silencing TRIB3
decreased the tumor sphere formation ability of MCF7 cells with or without IL-6 stimulation. […]
Data are shown as the mean ± SEM; P>0.05 was considered not significant (N.S.); *P<0.05, **P<0.01
and ***P<0.001, compared with the con group in panels d-f. Source data are provided as a Source Data

MCF7 cells = assay: TRIB3/AKT/FOXO1/SOX2 axis after IL-6, CoCl2 or high glucose, MCF7 cells (WB); format: cell-based, human
[4] = system: TRIB3-silenced MCF7 cells; assay: Immunoblot of AKT1/FOXO1/SOX2, TRIB3-silenced MCF7 cells with AKT1 inhibitor MK2206; format: cell-based, human; conditions: Fig.6e, MCF7, TRIB3-shRNA, v.s CTRL-shRNA+DMSO
Source text: (§4) Fig. 6 TRIB3 abrogates the AKT-FOXO1 interaction. a Supervised clustering of MCF7 cells transfected with CTRL-shRNA or TRIB3-shRNA using the log2-transformed values for genes in the FOXO1 upstream pathway, including AMPK, ERK, PI3K, p38, and JNK clustered genes expressed in all samples. Each column represents a separate case. Z-scores from IPA depicting the subnetwork gene expression differences between CTRL-shRNA and TRIB3-shRNA cases. The Z-score heat map depicts the five FOXO1 upstream subnetworks. Each row represents the data for the subnetwork indicated in the right margin. b, c TRIB3 inhibited the activity of AKT1 in BCCs. The indicated stable expression cell extracts were prepared and the levels of the indicated proteins were detected by immunoblotting. d, e The effects of the AKT1 agonist or antagonist for TRIB3-FOXO1-SOX2 axis in BCCs. The indicated cells were treated with the AKT1 agonist SC79 or the antagonist MK2206 for 24 h. […] HMLE cell extracts were IP with an anti-AKT1 Ab and blotted with an anti-TRIB3 or anti-FOXO1 Ab in the presence of the indicated concentration of the TRIB3-GST protein. Data are shown as the mean ± SEM; P > 0.05 was considered not significant (NS); *P < 0.05, **P < 0.01, and ***P < 0.001 compared with the vector or CTRL-shRNA group. Source data are provided as a Source Data file.
as §1

[5] = system: HMLE cells overexpressing TRIB3; assay: Immunoblot of AKT1/FOXO1/SOX2, HMLE cells with AKT1 agonist SC79; format: cell-based, human; conditions: for Relative fold change AKT1 / Relative fold change FOXO1 / Relative fold change SOX2 / Relative fold change TRIB3 / Relative fold change p-AKT(473S) / Relative fold change p-FOXO1(256S): Fig.6d, HMLE, TRIB3-shRNA, v.s CTRL-shRNA+DMSO
Source text: as §4, §1

TRIB3-GST protein = biological target: T1, TRIB3-GST protein (UniProt Q96RU7 1-358); assay: SPR
T1 chain: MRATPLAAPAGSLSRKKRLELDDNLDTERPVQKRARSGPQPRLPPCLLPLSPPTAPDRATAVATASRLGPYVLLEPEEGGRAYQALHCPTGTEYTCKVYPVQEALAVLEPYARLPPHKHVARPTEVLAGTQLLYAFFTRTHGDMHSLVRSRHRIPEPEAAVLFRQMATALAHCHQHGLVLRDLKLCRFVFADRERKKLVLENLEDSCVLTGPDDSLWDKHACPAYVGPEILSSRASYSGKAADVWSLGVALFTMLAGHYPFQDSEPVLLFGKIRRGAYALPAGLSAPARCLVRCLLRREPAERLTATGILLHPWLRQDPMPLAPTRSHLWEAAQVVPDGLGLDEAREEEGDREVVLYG

[6] = HMLE cells overexpressing TRIB3, 24 h

Molecule: CC(C)C[C@@H](C=O)NC(=O)[C@H](CC(C)C)NC(=O)[C@H](CC(C)C)NC(=O)OCc1ccccc1 [MG132] (Cbz-Leu-Leu-Leu-aldehyde)
- degradation of FOXO1 (FOXO1 [1]; CHX 20 μM plus BAF 200 nM or MG132 10 μM, in words): inhibited by the proteasome inhibitor MG132
- FOXO1 half-life (FOXO1 [1]): 6 h
- inhibition of FOXO1 reduction caused by TRIB3 silencing (FOXO1 [2]): inhibited by MG132
- inhibition of FOXO1 reduction caused by TRIB3 silencing (FOXO1 [3]): inhibited by MG132

Molecule: IL-1β: cytokine
- TRIB3 expression (TRIB3): enhanced TRIB3 expression in MCF7 cells

Molecule: tumor necrosis factor-α
- TRIB3 expression (TRIB3): enhanced TRIB3 expression in MCF7 cells

Molecule: OC[C@H]1OC(O)[C@H](O)[C@@H](O)[C@@H]1O (stereo partly drawn) [high glucose, glucose]
- TRIB3 expression (TRIB3): enhanced TRIB3 expression in MCF7 cells
- expressions of FOXO1 and SOX2 (MCF7 cells; MCF7 cells, IL-6 12 hr, CoCl2 24 hr, high glucose 24 hr, WB): enhanced expressions of FOXO1 and SOX2
- expressions of FOXO1 and SOX2 (MCF7 cells; MCF7 cells, IL-6 12 hr, CoCl2 24 hr, high glucose 24 hr, WB, listed as high-glucose): enhance
- activity of FOXO1 S256 (MCF7 cells; MCF7 cells, IL-6 12 hr, high glucose 24 hr, WB): reduced the activity of FOXO1^S256

Molecule: transforming growth factor-β
- TRIB3 expression (TRIB3): enhanced TRIB3 expression in MCF7 cells

Molecule: NC1(c2ccc(-c3nc4ccn5c(=O)[nH]nc5c4cc3-c3ccccc3)cc2)CCC1 [MK-2206]
- Relative fold change AKT1 ([4]; replicate 1): 0.657
- Relative fold change FOXO1 ([4]; replicate 1): 1.341
- Relative fold change SOX2 ([4]; replicate 1): 0.604
- Relative fold change TRIB3 ([4]; replicate 1): 0.180
- Relative fold change p-AKT(473S) ([4]; replicate 1): 0.243
- Relative fold change p-FOXO1(256S) ([4]; replicate 1): 0.564
- Relative fold change AKT1 ([4]; replicate 2): 0.717
- Relative fold change FOXO1 ([4]; replicate 2): 1.441
- Relative fold change SOX2 ([4]; replicate 2): 0.664
- Relative fold change TRIB3 ([4]; replicate 2): 0.200
- Relative fold change p-AKT(473S) ([4]; replicate 2): 0.263
- Relative fold change p-FOXO1(256S) ([4]; replicate 2): 0.614
- Relative fold change AKT1 ([4]; replicate 3): 0.597
- Relative fold change FOXO1 ([4]; replicate 3): 1.241
- Relative fold change SOX2 ([4]; replicate 3): 0.544
- Relative fold change TRIB3 ([4]; replicate 3): 0.160
- Relative fold change p-AKT(473S) ([4]; replicate 3): 0.223
- Relative fold change p-FOXO1(256S) ([4]; replicate 3): 0.514

Molecule: CCOC(=O)C1=C(N)Oc2ccc(Cl)cc2C1C(C#N)C(=O)OCC (stereo not drawn) [SC79]
- Relative fold change AKT1 ([5]; replicate 1): 1.9500
- Relative fold change FOXO1 ([5]; replicate 1): 0.4880
- Relative fold change SOX2 ([5]; replicate 1): 5.8119
- Relative fold change TRIB3 ([5]; replicate 1): 6.9492
- Relative fold change p-AKT(473S) ([5]; replicate 1): 1.6733
- Relative fold change p-FOXO1(256S) ([5]; replicate 1): 1.9882
- Relative fold change AKT1 ([5]; replicate 2): 2.1500
- Relative fold change FOXO1 ([5]; replicate 2): 0.5280
- Relative fold change SOX2 ([5]; replicate 2): 6.4119
- Relative fold change TRIB3 ([5]; replicate 2): 7.5492
- Relative fold change p-AKT(473S) ([5]; replicate 2): 1.7733
- Relative fold change p-FOXO1(256S) ([5]; replicate 2): 2.1782
- Relative fold change AKT1 ([5]; replicate 3): 1.7500
- Relative fold change FOXO1 ([5]; replicate 3): 0.4480
- Relative fold change SOX2 ([5]; replicate 3): 5.2119
- Relative fold change TRIB3 ([5]; replicate 3): 6.3492
- Relative fold change p-AKT(473S) ([5]; replicate 3): 1.5733
- Relative fold change p-FOXO1(256S) ([5]; replicate 3): 1.7982
- FOXO1 and SOX2 expression [5, 6]: inhibited FOXO1 and SOX2 expression
- activity of AKT1 S473 and FOXO1 S256 [5, 6]: rescued the activity of AKT1^S473 and FOXO1^S256

Molecule: [Cl-].[Cl-].[Co+2] [CoCl2, reference compound]
- expressions of FOXO1 and SOX2 (MCF7 cells): enhance

Molecule: O=c1cc(N2CCOCC2)oc2c(-c3ccccc3)cccc12 [LY294002]
- FOXO1 half-life (FOXO1 [1]): 4.4 h

Molecule: VAHTLTENRVLQN [peptide Ae]
- Kd (TRIB3-GST protein): 300 nM

Molecule: EVAATLTENRVLQN [M3]
- Kd (TRIB3-GST protein): 170 nM

Molecule: EVAHTLTENRALQN [M10]
- Kd (TRIB3-GST protein): 750 nM
